This assay addresses T1, KLK2 (Homo sapiens, UniProt P20151).
T1 construct: purchased R&D Systems
Nature of the assay: Determination of kinact/KI, fluorogenic substrate kinetic assay. It counts as biochemical. To be noted: for kinact/KI: mean ± SEM (N = 3). The text has this:
1.1 Chemicals and Reagents
All chemicals and reagents were purchased from commercial suppliers and used without further purification. Rink Amide resin (100-200 mesh) and 2-Chlorotrityl chloride resin (100-200 mesh, 1% DVB) were obtained from Merck. Natural Fmoc-amino acids were obtained from AGTC Bioproducts Ltd. Unnatural Fmoc-amino acids were obtained from Fluorochem, Alfa Aesar, VWR, Merck, Iris Biotech, Bachem or Sigma Aldrich. Culture media, fetal bovine serum, trypsin, antibiotics and chemicals required for differentiation of osteoprogenitor cells were obtained from Sigma Aldrich, Gibco or Invitrogen. Amicon 3 KDa Centrifugal filter units were obtained from Merck. Recombinant human KLK2 and KLK14 were obtained from R&D Systems and activated using the supplier’s protocol. All remaining chemical reagents were obtained from VWR, Sigma Aldrich or Merck. […]
Fluorescent plate-based enzymatic assays were carried out using an Envision 2104 Multilabel Plate Reader (PerkinElmer) operating in kinetic mode for a minimum of 20 min with excitation/emission […]
Specificity […]
was calculated by normalizing RFUs-1 to the highest value, which was set at 100 %.
Calculations were made in GraphPad Prism 5.
Determination of kcat/KM: The KLK2 substrate and KLK14 substrate were serially diluted in the appropriate KLK assay buffer and 25 μL was added to the wells of a 96-well plate. Next, 25 μL of KLK2 (1.5 nM) or KLK14 (75 pM) was added to each well containing the substrate and the enzyme-substrate reaction was monitored for at least 10 min. The linear portion of each progress curve was used to calculate relative fluorescence units per second (RFUs-1).
KM, kcat, and kcat/KM parameters were determined by nonlinear regression in GraphPad Prism 5 (GraphPad Software). Each experiment was repeated three times and the results are presented as an average ± SEM.
Determination of kinact/KI: Under pseudo-first order conditions, a fixed amount of KLK2 (1.5 nM) or KLK14 (37 pM) was incubated with peptidyl-DPP analogue at different concentrations in the presence of 5 µM of substrate. The pseudo first-order rate constant, kobs, was calculated for each probe concentration using non-linear regression analysis in GraphPad Prism 5. The obtained values were plotted against probe concentration to afford the apparent second order rate constant kinact(app)/KI. The absolute value of the second order rate constant was then obtained by adjusting for the substrate competition factor (1 + [S]/Km), where S is the concentration of substrate in the assay and KM is the Michaelis Menten constant for that substrate/enzyme reaction.
2.5 Cell Migration Assays
Cell migration: The assay was performed as per the manufacturer’s protocol (https://www.corning.com/catalog/cls/documents/protocols/an_Chemotaxis_protocol.pdf).
Briefly, LNCaP-WT, LNCaP-mK14 and LNCaP-K14 cells were grown to 80% confluency in RPMI media supplemented with 5 % FBS. The media was then aspirated, the cells were washed with 2 mL PBS (3*) and incubated with serum-free RPMI (without phenol red) supplemented with 10 nM DHT ± 100 ng/mL Dox for 24 h. Cells were trypsinized, washed twice with serum-free RPMI and resuspended in serum-free RPMI. 100,000 cells in 100 µL of serum-free RPMI was then added to the transwell inserts placed in a 24-well plate (Corning […]
Figure S15: KLK2 and KLK14 substrates. (A) Structures (B) Optimal assay conditions for […]
S19) inhibitors (C) Michaelis-Menten (K M) and rate (kcat) constants for KLK substrates

The results in this text go back to PMC9282638, “A Suite of Activity-Based Probes To Dissect the KLK Activome in Drug-Resistant Prostate Cancer” (Journal of the American Chemical Society, 2021).

A word on the kinact/KI: it is the second-order rate constant of inactivation.

T1 sequence (P20151 25-261): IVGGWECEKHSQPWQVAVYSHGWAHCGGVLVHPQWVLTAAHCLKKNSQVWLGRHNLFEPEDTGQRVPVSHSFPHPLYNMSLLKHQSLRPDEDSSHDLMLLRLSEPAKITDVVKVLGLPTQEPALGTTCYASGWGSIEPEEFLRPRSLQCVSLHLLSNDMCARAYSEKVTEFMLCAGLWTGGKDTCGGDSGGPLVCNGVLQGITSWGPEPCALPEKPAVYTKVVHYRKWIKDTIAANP

For the compound `CC(C)(C)C(NC(=O)CCCCCNC(=O)CCCCC1SCC2NC(=O)NC21)C(=O)NC(CCN)C(=O)NC(Cc1ccc(O)cc1)C(=O)NC(c1ccc(NC(=N)N)cc1)P(=O)(Oc1ccccc1)Oc1ccccc1` (stereo not drawn) [compound 31, Tle-Dab-Tyr-Arg], the “selectivity (fold-change)” value (KLK2 probe optimization series, KLK2 over KLK14) was 33 fold. For the same compound, the kinact/KI (KLK2 probe optimization series) is 3080 ± 87 M⁻¹ s⁻¹.
Turning to `CCC(NC(=O)C(CCN)NC(=O)C(Cc1ccc2ccccc2c1)NC(=O)CCCCCNC(=O)CCCCC1SCC2NC(=O)NC21)C(=O)NC(c1ccc(NC(=N)N)cc1)P(=O)(Oc1ccccc1)Oc1ccccc1` (stereo not drawn) [compound 39, 2Nal-Dab-Abu-Arg], the kinact/KI (KLK14 probe optimization series) is 204 ± 13 M⁻¹ s⁻¹.
